For 29 compounds, MIC results are on record in US10471046B2, “Method for treating, preventing, or reducing the risk of skin infection” (Melinta Subsidiary Corp., priority 2014, dated 2019).

This experiment deals with S. aureus. Kind of experiment: Minimum inhibitory concentrations (MICs) for S. aureus of exemplary compounds (Table 2). The experiment is classed as cell-based. The following applies: Staphylococcus aureus, minimum inhibitory concentrations for S. aureus; read-out: MICs. From the text:
Exemplary compounds in accordance with the invention are listed in Table 2 with their minimum inhibitory concentrations (MICs) (μg/mL) for S. aureus:
Furthermore, the antibiotic compounds can be assayed for anti-proliferative or anti-infective properties on a cellular level. For example, where the target organism is a microorganism, the activity of compounds of interest can be assayed by growing the microorganisms of interest in media either containing or lacking the compound. Growth inhibition can be indicative that the molecule could be acting as a protein synthesis inhibitor. […] For this purpose, a panel of bacterial strains can be assembled to include a variety of target pathogenic species, some containing resistance mechanisms that have been characterized. Use of such a panel of organisms permits the determination of structure-activity relationships not only in regards to potency and spectrum, but also with a view to obviating resistance mechanisms. The assays can be performed in microtiter trays according to conventional methodologies as published by The National Committee for Clinical Laboratory Standards (NCCLS) guidelines (NCCLS. M7-A5-Methods for Dilution Antimicrobial Susceptibility Tests for Bacteria That Grow Aerobically; Approved Standard-Fifth Edition. NCCLS Document M100-S12/M7 (ISBN 1-56238-394-9)).

Structures are written as SMILES. In brackets after ≈: the same amount, converted by molar mass.

For the compound `CC(=O)NC[C@H]1CN(c2ccc(-c3ccc([C@@H](N)Cn4ccnc4)cc3)c(F)c2)C(=O)O1` [Compound 1031, N-{3-[4′-(R)-(1-Amino-2-imidazol-1-yl-ethyl)-2-fluoro-biphenyl-4-yl]-2-oxo-oxazolidin-5-(S)-ylmethyl}-acetamide], the MIC worked out at 8 µg/mL (≈ 18.3 µM).

For `NC[C@H]1CN(c2ccc(-c3ccc(Cn4cnnn4)cc3)c(F)c2)C(=O)O1` [Compound 1032, 5-(S)-Aminomethyl-3-(2-fluoro-4′-tetrazol-1-ylmethyl-biphenyl-4-yl)-oxazolidin-2-one], the MIC is 32 µg/mL (≈ 86.9 µM).

Turning to `O=C(CCl)NC[C@H]1CN(c2ccc(-c3ccc(Cn4cnnn4)cc3)c(F)c2)C(=O)O1` [Compound 1033, 2-Chloro-N-[3-(2-fluoro-4′-tetrazol-1-ylmethyl-biphenyl-4-yl)-2-oxo-oxazolidin-5-(S)-ylmethyl]-acetamide], the MIC came out at 0.25 µg/mL (≈ 0.562 µM). The same measure for `O=C(NC[C@H]1CN(c2ccc(-c3ccc(Cn4cnnn4)cc3)c(F)c2)C(=O)O1)C(Cl)Cl` [Compound 1034, 2,2-Dichloro-N-[3-(2-fluoro-4′-tetrazol-1-ylmethyl-biphenyl-4-yl)-2-oxo-oxazolidin-5-(S)-ylmethyl]-acetamide]: 0.5 µg/mL (≈ 1.04 µM).

Turning to `CC(=O)NC[C@H]1CN(c2ccc(-c3ccc(Cn4cnnn4)nc3)c(F)c2)C(=O)O1` [Compound 1035, N-{3-[3-Fluoro-4-(6-tetrazol-1-ylmethyl-pyridin-3-yl)-phenyl]-2-oxo-oxazolidin-5-(S)-ylmethyl}-acetamide], the MIC was 0.5 µg/mL (≈ 1.22 µM). Next, `CC(=O)NC[C@H]1CN(c2ccc(-c3ccc(Cn4ccnn4)nc3)c(F)c2)C(=O)O1` [Compound 1036, N-{3-[3-Fluoro-4-(6-[1,2,3]triazol-1-ylmethyl-pyridin-3-yl)-phenyl]-2-oxo-oxazolidin-5-(S)-ylmethyl}-acetamide]: 1 µg/mL (≈ 2.44 µM); `CC(=O)NC[C@H]1CN(c2ccc(-c3ccc(Cn4cncn4)cc3)c(F)c2)C(=O)O1` [Compound 1037, N-[3-(2-Fluoro-4′-[1,2,4]triazol-1-ylmethyl-biphenyl-4-yl)-2-oxo-oxazolidin-5-(S)-ylmethyl]-acetamide]: 0.5 µg/mL (≈ 1.22 µM); `CC(=O)NC[C@H]1CN(c2ccc(-c3ccc(CN4CCN(c5ncc(C(F)(F)F)cc5Cl)CC4)cc3)c(F)c2)C(=O)O1` [Compound 1038, N-(3-{4′-[4-(3-Chloro-5-trifluoromethyl-pyridin-2-yl)-piperazin-1-ylmethyl]-2-fluoro-biphenyl-4-yl}-2-oxo-oxazolidin-5-(S)-ylmethyl)-acetamide]: 128 µg/mL (≈ 211 µM). The same measure for `CC(=O)NC[C@H]1CN(c2ccc(-c3ccc(Cn4cccn4)cc3)c(F)c2)C(=O)O1` [Compound 1043, N-[3-(2-Fluoro-4′-pyrazol-1-ylmethyl-biphenyl-4-yl)-2-oxo-oxazolidin-5-(S)-ylmethyl]-acetamide]: 0.25 µg/mL (≈ 0.612 µM). The same measure for `CC(=O)NC[C@H]1CN(c2ccc(-c3ccc([C@H](O)CN4CCN(C=O)CC4)cc3)c(F)c2)C(=O)O1` [Compound 1044, N-(3-{2-Fluoro-4′-[2-(4-formyl-piperazin-1-yl)-1-(S)-hydroxy-ethyl]-biphenyl-4-yl}-2-oxo-oxazolidin-5-(S)-ylmethyl)-acetamide]: 0.5 µg/mL (≈ 1.03 µM).

With `CC(=O)NC[C@H]1CN(c2ccc(-c3ccc([C@H](CO)N4CCN(C=O)CC4)cc3)c(F)c2)C(=O)O1` [Compound 1045, N-(3-{2-Fluoro-4′-[1-(R)-(4-formyl-piperazin-1-yl)-2-hydroxy-ethyl]-biphenyl-4-yl}-2-oxo-oxazolidin-5-(S)-ylmethyl)-acetamide], the MIC is 0.5 µg/mL (≈ 1.03 µM). On to `CC(=O)NC[C@H]1CN(c2ccc(-c3ccc([C@H](O)Cn4ccnc4)cc3)c(F)c2)C(=O)O1` [Compound 1046, N-{3-[2-Fluoro-4′-(1-(S)-hydroxy-2-imidazol-1-yl-ethyl)-biphenyl-4-yl]-2-oxo-oxazolidin-5-(S)-ylmethyl}-acetamide], for which the MIC was determined as 1 µg/mL (≈ 2.28 µM). Regarding `CC(=O)NC[C@H]1CN(c2ccc(-c3ccc(Cn4cnnn4)cc3)c(F)c2)C(=O)O1` [Compound 1047, N-[3-(2-Fluoro-4′-tetrazol-1-ylmethyl-biphenyl-4-yl)-2-oxo-oxazolidin-5-(S)-ylmethyl]-acetamide], the MIC came out at 0.25 µg/mL (≈ 0.609 µM). The same measure for `CC(=O)NC[C@H]1CN(c2cc(F)c(-c3ccc(Cn4cnnn4)cc3)c(F)c2)C(=O)O1` [Compound 1048, N-[3-(2,6-Difluoro-4′-tetrazol-1-ylmethyl-biphenyl-4-yl)-2-oxo-oxazolidin-5-(S)-ylmethyl]-acetamide]: 1 µg/mL (≈ 2.33 µM). The same measure for `CCOC(=O)c1cnn(Cc2ccc(-c3ccc(N4C[C@H](CNC(C)=O)OC4=O)cc3F)cc2)c1` [Compound 1049, 1-{4′-[5-(S)-(Acetylamino-methyl)-2-oxo-oxazolidin-3-yl]-2′-fluoro-biphenyl-4-ylmethyl}-1H-pyrazole-4-carboxylic acid ethyl ester]: 0.5 µg/mL (≈ 1.04 µM); for `CC(=O)NC[C@H]1CN(c2ccc(-c3ccc(Cn4cnc(CO)c4)cc3)c(F)c2)C(=O)O1` [Compound 1050, N-{3-[2-Fluoro-4′-(4-hydroxymethyl-imidazol-1-ylmethyl)-biphenyl-4-yl]-2-oxo-oxazolidin-5-(S)-ylmethyl}-acetamide]: 2 µg/mL (≈ 4.56 µM). The same measure for `CC(=O)NC[C@H]1CN(c2ccc(-c3ccc(Cn4cc(C(=O)O)cn4)cc3)c(F)c2)C(=O)O1` [Compound 1051, 1-{4′-[5-(S)-(Acetylamino-methyl)-2-oxo-oxazolidin-3-yl]-2′-fluoro-biphenyl-4-ylmethyl}-1H-pyrazole-4-carboxylic acid]: 1 µg/mL (≈ 2.21 µM). Regarding `CC(=O)NC[C@H]1CN(c2ccc(-c3ccc(Cn4cc(C)cn4)cc3)c(F)c2)C(=O)O1` [Compound 1052, N-{3-[2-Fluoro-4′-(4-methyl-pyrazol-1-ylmethyl)-biphenyl-4-yl]-2-oxo-oxazolidin-5-(S)-ylmethyl}-acetamide], the MIC was 1 µg/mL (≈ 2.37 µM). Take `CC(=O)NC[C@H]1CN(c2ccc(-c3ccc(Cn4ccc(N)n4)cc3)c(F)c2)C(=O)O1` [Compound 1053, N-{3-[4′-(3-Amino-pyrazol-1-ylmethyl)-2-fluoro-biphenyl-4-yl]-2-oxo-oxazolidin-5-(S)-ylmethyl}-acetamide]: the MIC came out at 1 µg/mL (≈ 2.36 µM).

Turning to `CC(=O)NC[C@H]1CN(c2ccc(-c3ccc(Cn4cccc4)cc3)c(F)c2)C(=O)O1` [Compound 1054, N-[3-(2-Fluoro-4′-pyrrol-1-ylmethyl-biphenyl-4-yl)-2-oxo-oxazolidin-5-(S)-ylmethyl]-acetamide], the MIC turned out to be 0.5 µg/mL (≈ 1.23 µM).

In the case of `CC(=O)NC[C@H]1CN(c2ccc(-c3ccc(Cn4ccc(C=O)c4)cc3)c(F)c2)C(=O)O1` [Compound 1055, N-{3-[2-Fluoro-4′-(3-formyl-pyrrol-1-ylmethyl)-biphenyl-4-yl]-2-oxo-oxazolidin-5-(S)-ylmethyl}-acetamide], the MIC came to 0.25 µg/mL (≈ 0.574 µM). Next, `CC(=O)NC[C@H]1CN(c2ccc(-c3ccc(Cn4ncnn4)cc3)c(F)c2)C(=O)O1` [Compound 1056, N-[3-(2-Fluoro-4′-tetrazol-2-ylmethyl-biphenyl-4-yl)-2-oxo-oxazolidin-5-(S)-ylmethyl]-acetamide]: 0.25 µg/mL (≈ 0.609 µM); `CC(=O)NC[C@H]1CN(c2ccc(-c3ccc(Cn4nnnc4C)cc3)c(F)c2)C(=O)O1` [Compound 1058, N-{3-[2-Fluoro-4′-(5-methyl-tetrazol-1-ylmethyl)-biphenyl-4-yl]-2-oxo-oxazolidin-5-(S)-ylmethyl}-acetamide]: 0.5 µg/mL (≈ 1.18 µM); `CC(=O)NC[C@H]1CN(c2ccc(-c3ccc(Cn4nnc(C)n4)cc3)c(F)c2)C(=O)O1` [Compound 1059, N-{3-[2-Fluoro-4′-(5-methyl-tetrazol-2-ylmethyl)-biphenyl-4-yl]-2-oxo-oxazolidin-5-(S)-ylmethyl}-acetamide]: 0.5 µg/mL (≈ 1.18 µM). The same measure for `CC(=O)NC[C@H]1CN(c2ccc(-c3ccc([C@H](O)Cn4ccnn4)cc3)c(F)c2)C(=O)O1` [Compound 1061, N-{3-[2-Fluoro-4′-(1-(S)-hydroxy-2-[1,2,3]triazol-1-yl-ethyl)-biphenyl-4-yl]-2-oxo-oxazolidin-5-(S)-ylmethyl}-acetamide]: 1 µg/mL (≈ 2.28 µM). The same measure for `CC(=O)NC[C@H]1CN(c2ccc(-c3ccc([C@H](O)CN4CCC4)cc3)c(F)c2)C(=O)O1` [Compound 1062, N-{3-[4′-(2-Azetidin-1-yl-1-(S)-hydroxy-ethyl)-2-fluoro-biphenyl-4-yl]-2-oxo-oxazolidin-5-(S)-ylmethyl}-acetamide]: 8 µg/mL (≈ 18.7 µM); for `CC(=O)NC[C@H]1CN(c2ccc(-c3ccc([C@H](CO)N4CCC4)cc3)c(F)c2)C(=O)O1` [Compound 1063, N-{3-[4′-(1-(R)-Azetidin-1-yl-2-hydroxy-ethyl)-2-fluoro-biphenyl-4-yl]-2-oxo-oxazolidin-5-(S)-ylmethyl}-acetamide]: 8 µg/mL (≈ 18.7 µM); for `CC(=O)NC[C@H]1CN(c2ccc(-c3ccc(CN4CCSCC4)cc3)c(F)c2)C(=O)O1` [Compound 1064, N-[3-(2-Fluoro-4′-thiomorpholin-4-ylmethyl-biphenyl-4-yl)-2-oxo-oxazolidin-5-(S)-ylmethyl]-acetamide]: 2 µg/mL (≈ 4.51 µM). As to `CC(=O)NC[C@H]1CN(c2ccc(-c3ccc(CN4CC[S+]([O-])CC4)cc3)c(F)c2)C(=O)O1` [Compound 1065, N-{3-[2-Fluoro-4′-(1-oxo-1 lambda*4*-thiomorpholin-4-ylmethyl)-biphenyl-4-yl]-2-oxo-oxazolidin-5-(S)-ylmethyl}-acetamide], the MIC was determined as 2 µg/mL (≈ 4.35 µM).
